Data reported in paper PMC12388617, “Development and Biochemical Characterization of Quorum Quenching Enzyme from Deep-Sea Bacillus velezensis DH82” (Microorganisms, 2025).

Assays:
[1] = tested on: T1, AiiADH82; assay: UPLC-QTOF MS of residual AHL (m/z […]), Lineweaver-Burk; assay type: biochemical, Bacillus velezensis; conditions: pH 6.5, 28 °C, 45 min; substrate 200-350 µM (far below the printed Km)
T1 construct: gene aiiA; full length, pET28a NdeI/XhoI, His6 at N- and C-terminus, E. coli BL21, Ni-NTA; primer-encoded start MTVKKLYF

[2] = biological target: T2, YtnPDH82 (Bacillus velezensis, UniProt A7Z7T2); assay: as above; assay type: biochemical; conditions: pH 6.5, 28 °C, 45 min; substrate 200-350 µM (far below the printed Km)
T2 construct: gene RBAM_027000; full length, pET28a EcoRI/XhoI, His6 at N- and C-terminus, E. coli BL21, Ni-NTA; primer-encoded start METLNIGNF
T2 sequence (A7Z7T2 entry or part of it): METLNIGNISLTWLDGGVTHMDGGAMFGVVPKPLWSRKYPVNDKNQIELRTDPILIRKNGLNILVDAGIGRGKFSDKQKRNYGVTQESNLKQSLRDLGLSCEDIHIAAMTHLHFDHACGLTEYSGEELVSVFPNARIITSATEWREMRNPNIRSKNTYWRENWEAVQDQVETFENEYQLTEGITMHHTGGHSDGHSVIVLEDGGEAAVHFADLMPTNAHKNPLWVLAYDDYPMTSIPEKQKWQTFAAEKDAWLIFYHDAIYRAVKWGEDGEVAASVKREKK

Work on `CCCC(=O)CC(=O)N[C@H]1CCOC1=O` [3-oxo-C6-HSL] yielded a Km [1] of 7.8 mM and a Km [2] of 15.3 mM.
